Values quoted from earlier work as cited in US8586590B2, “Compounds” (GlaxoSmithKline Intellectual Property Development Limited, priority 2009, dated 2013).

How the values were obtained:
neutrophils = settings: treatment of neutrophils; Thelen et al. 1994

SMILES	inhibitory activity on phospholipases (phospholipases)	neutrophil migration (neutrophil)	superoxide release (neutrophil)	fMLP-induced respiratory burst response (neutrophils)
O=c1cc(N2CCOCC2)oc2c(-c3ccccc3)cccc12 [LY294002]	some inhibitory activity	block	block	–
COC[C@H]1OC(=O)c2coc3c2[C@@]1(C)C1=C(C3=O)[C@@H]2CCC(=O)[C@@]2(C)C[C@H]1OC(C)=O [wortmannin]	–	block	block	prevents the fMLP-induced respiratory burst response
